Data published in a compilation of properties of binary mixtures (doi:10.1021/jp3012602).

Assay: xn = mol fraction of the nth substance listed
Conditions: 101 kPa

CCCC[N+]1(C)CCCC1.O=S(=O)([N-]S(=O)(=O)C(F)(F)F)C(F)(F)F + CCC[N+]1(C)CCCC1.O=S(=O)([N-]S(=O)(=O)C(F)(F)F)C(F)(F)F
x1 = 1
Conditions	electrical conductivity [S/m]	viscosity [mPa·s]
293.15 K	0.222	–
313.15 K	0.471	42
333.15 K	0.827	21.7
353.15 K	1.23	12.9

CCC[N+]1(C)CCCC1.N#C[N-]C#N + CCC[N+]1(C)CCCC1.O=S(=O)([N-]S(=O)(=O)C(F)(F)F)C(F)(F)F
Conditions	electrical conductivity, 293.15 K [S/m]	electrical conductivity, 313.15 K [S/m]	electrical conductivity, 333.15 K [S/m]	viscosity, 293.15 K [mPa·s]	viscosity, 313.15 K [mPa·s]	viscosity, 333.15 K [mPa·s]	viscosity, 353.15 K [mPa·s]
x1 = 0.25	0.44	0.842	–	63.1	29.7	–	10.4
x1 = 0.5	0.733	1.34	2.16	51	25.3	14.8	9.58
x1 = 0.75	0.982	1.75	–	44.9	21.6	–	8.66
x1 = 1	1.57	2.67	4.44	–	18.6	11.7	7.95

CC[n+]1ccn(C)c1.O=S(=O)([N-]S(=O)(=O)C(F)(F)F)C(F)(F)F + CCC[N+]1(C)CCCC1.O=S(=O)([N-]S(=O)(=O)C(F)(F)F)C(F)(F)F
x1 = 1
Conditions	electrical conductivity [S/m]	viscosity [mPa·s]
293.15 K	0.752	–
313.15 K	1.35	19.9
333.15 K	2.1	12
353.15 K	3.05	7.97

CCC[N+]1(C)CCCC1.O=S(=O)([N-]S(=O)(=O)C(F)(F)F)C(F)(F)F + CC[n+]1ccn(C)c1.O=S(=O)([N-]S(=O)(=O)C(F)(F)F)C(F)(F)F
Conditions	electrical conductivity, 293.15 K [S/m]	electrical conductivity, 313.15 K [S/m]	electrical conductivity, 333.15 K [S/m]	electrical conductivity, 353.15 K [S/m]	viscosity, 293.15 K [mPa·s]	viscosity, 313.15 K [mPa·s]	viscosity, 333.15 K [mPa·s]	viscosity, 353.15 K [mPa·s]
x2 = 0	0.32	0.678	–	–	–	34.4	–	–
x2 = 0.25	0.408	0.801	1.34	2	63.6	29.4	16.6	10.5
x2 = 0.5	–	0.985	1.62	2.37	–	25.8	14.9	9.57
x2 = 0.75	0.633	1.16	1.85	2.66	45	22.6	13.3	8.77
